± gives the standard deviation of the averaged measurements.
What was measured:
Test in all cases: drug sensitivity score (DSS); higher = more sensitive; extreme values may be limits of the assay
Settings in all cases: treatment time: 3 days
UT-SCC-44 = tested on: UT-SCC-44
Summary of the method: (§1)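 HPV-negative HNSCC cell lines were plated at 500 cells/well in 384-well plates, either on plastic, on wells coated with Matrigel or Myogel (500 µg/mL), or embedded in Matrigel or Myogel plus rat collagen I. Each compound was tested at five 10-fold concentrations over 3 days. Viability was measured by CellTiter-Glo 2.0 luminescence, and IC50, maximal inhibition and drug sensitivity score came from percent-inhibition dose–response curves fitted in the FIMM pipeline after normalisation to vehicle (0.1% DMSO) and cell-killing control wells.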

UT-SCC-14 = tested on: UT-SCC-14
Summary of the method: as §1

UT-SCC-24B = tested on: UT-SCC-24B
Summary of the method: as §1

UT-SCC-73 = tested on: UT-SCC-73
Summary of the method: as §1

UT-SCC-106A = tested on: UT-SCC-106A
Summary of the method: as §1

UT-SCC-28 = tested on: UT-SCC-28
Summary of the method: as §1

UT-SCC-81 = tested on: UT-SCC-81
Summary of the method: as §1

UT-SCC-42B = tested on: UT-SCC-42B
Summary of the method: as §1

[1] = culture condition: embedded in Matrigel
[2] = culture condition: embedded in Myogel + collagen I
[3] = culture condition: on top of Matrigel
[4] = culture condition: on top of Myogel
[5] = culture condition: plastic 2D (no matrix)

In the case of CO[C@H]1C[C@@H]2CC[C@@H](C)[C@@](O)(O2)C(=O)C(=O)N2CCCC[C@H]2C(=O)O[C@H]([C@H](C)C[C@@H]2CC[C@@H](OC(=O)C(C)(CO)CO)[C@H](OC)C2)CC(=O)[C@H](C)/C=C(\C)[C@@H](O)[C@@H](OC)C(=O)[C@H](C)C[C@H](C)/C=C/C=C/C=C/1C [Temsirolimus], the drug sensitivity score (UT-SCC-44; [1]) is reported as 5.33 ± 4 DSS, the drug sensitivity score (UT-SCC-44; [2]) is reported as 9.3 ± 3.5 DSS and the drug sensitivity score (UT-SCC-44; [3]) is reported as 9.13 ± 1 DSS. For the same compound, the drug sensitivity score (UT-SCC-44; [4]) was 8.97 ± 1.4 DSS, the drug sensitivity score (UT-SCC-44; [5]) was 7.9 ± 0.78 DSS and the drug sensitivity score (UT-SCC-14; [1]) was 15.4 ± 0.23 DSS. The drug sensitivity score (UT-SCC-14; [2]) was 14 ± 1.9 DSS, the drug sensitivity score (UT-SCC-14; [3]) was 13.3 ± 0.66 DSS and the drug sensitivity score (UT-SCC-14; [4]) was 13.7 ± 1.3 DSS. The drug sensitivity score (UT-SCC-14; [5]) was 13.1 ± 2.3 DSS, the drug sensitivity score (UT-SCC-24B; [1]) was 5.07 ± 3.1 DSS and the drug sensitivity score (UT-SCC-24B; [2]) was 11 ± 2.6 DSS. For the same compound, the drug sensitivity score (UT-SCC-24B; [3]) was 4.3 ± 1.7 DSS, the drug sensitivity score (UT-SCC-24B; [4]) was 6.37 ± 1.4 DSS and the drug sensitivity score (UT-SCC-24B; [5]) was 4.77 ± 1.2 DSS. For the same compound, the drug sensitivity score (UT-SCC-73; [1]) was 9.13 ± 6.3 DSS, the drug sensitivity score (UT-SCC-73; [2]) was 8.27 ± 5.5 DSS and the drug sensitivity score (UT-SCC-73; [3]) was 7.23 ± 0.64 DSS. For the same compound, the drug sensitivity score (UT-SCC-73; [4]) was 7.1 ± 2.2 DSS, the drug sensitivity score (UT-SCC-73; [5]) was 4.53 ± 1.6 DSS and the drug sensitivity score (UT-SCC-106A; [1]) was 6.03 ± 1.3 DSS. It also gave a drug sensitivity score (UT-SCC-106A; [2]) of 5.33 ± 1.3 DSS, a drug sensitivity score (UT-SCC-106A; [3]) of 5.93 ± 1 DSS and a drug sensitivity score (UT-SCC-106A; [4]) of 3.33 ± 0.21 DSS. The drug sensitivity score (UT-SCC-106A; [5]) was 7.6 ± 0.85 DSS, the drug sensitivity score (UT-SCC-28; [1]) was 4.9 ± 2.9 DSS and the drug sensitivity score (UT-SCC-28; [2]) was 4.77 ± 3.2 DSS. The drug sensitivity score (UT-SCC-28; [3]) was 8.37 ± 2.5 DSS, the drug sensitivity score (UT-SCC-28; [5]) was 8.8 ± 1.3 DSS and the drug sensitivity score (UT-SCC-81; [1]) was 14.9 ± 3.1 DSS. The drug sensitivity score (UT-SCC-81; [2]) was 15 ± 3.8 DSS, the drug sensitivity score (UT-SCC-81; [3]) was 10.2 ± 0.74 DSS and the drug sensitivity score (UT-SCC-81; [4]) was 14.7 ± 1.5 DSS. The drug sensitivity score (UT-SCC-81; [5]) was 12.1 ± 2.3 DSS, the drug sensitivity score (UT-SCC-42B; [1]) was 4 ± 6 DSS and the drug sensitivity score (UT-SCC-42B; [3]) was 0 DSS. It also gave a drug sensitivity score (UT-SCC-42B; [4]) of 0 DSS and a drug sensitivity score (UT-SCC-42B; [5]) of 0.933 ± 0.84 DSS.

Source: the supplement of paper PMC7017272
